Data reported in patent US9827217B2, “Pharmaceutically acceptable salts of B-guanidinopropionic acid with improved properties and uses thereof” (Rgenix, Inc., priority 2015, dated 2017).

Key:
Assay type in all cases: physicochemical
[1] = Dynamic vapor sorption (moisture uptake)
Procedure: Samples were analyzed using an Aquadyne DVS-2 gravimetric water sorption analyzer. The relative humidity was adjusted between 2-95% and the weight of the sample was continuously monitored and recorded.
[…]: β-GPA maleate (1:1) Form II, β-GPA fumarate (1:1), β-GPA maleate (2:1), β-GPA succinate (2:1) and β-GPA oxalate (1:1) were analyzed by DVS experiment followed by XRPD analysis of the sample at the end of the experiment.
Sample 2162-64-1 was analyzed by DVS in triplicate and the post DVS samples were characterized by XRPD to identify the form at the end of the experiment.

[2] = Solubility of β-GPA in water
[3] = Flowability measurement using Hanson Flodex unit; conditions: density and Hanson Flodex data
From the text: A cylindrical vessel is secured to the stand and above that a funnel is also secured such that the bottom of the funnel is close to the vessel. A powder load of ≈50-60 g is then poured through the funnel into the middle of the cylinder. The lever device is pulled to open the hole in the disk quickly and without vibration. If a powder slowly flows through the small-diameter holes, leaving a cavity shaped like an upside-down, truncated cone, the test is considered positive. If a powder flocculates in bulk and falls abruptly, forming a cylindrical cavity, the test is considered negative. […] If the experiment is negative, the powder is tested again with a disk having a larger hole.

[4] = Determination of bulk and tapped density
Procedure: The bulk density of β-GPA oxalate (Pattern 18 B), succinate (Pattern 15A), and fumarate (Pattern 7A) were determined by pouring in a known amount of salt (g) into a measuring cylinder. The volume (Vi) occupied by the salt was recorded and the bulk density (ρB) was determined using equation 1. ρB=g/Vi (1)
The tapped densities of the salts were determined using a Tap density analyzer. A known amount of salt was poured (g) into a measuring cylinder and the initial volume was recorded and tapped using a Tap density analyzer. The final volume (Vf) after tapping was recorded and the tapped density (ρT) was calculated by using equation 2. ρT=g/Vf (2)

[5] = Determination of Carr's index and Hausner ratio; conditions: scale of Table 5
From the text: The flow properties of β-GPA are sub-optimal. The bulk density is 0.389 g/cc and the tapped density is 0.627 g/cc. These measurements can be used to calculate the Carr's index and Hausner ratio for a substance. The Carr's index and Hausner ratio are indicators of flowability of a powder. As known in the art, e.g., as described in Carr R. L. Chem. Eng. 1965, 72, 163-168, the relationship to flowability of a powder to the Carr's index and Hausner ratio is based on the scale shown in Table 5 below.
Carr's index or Carr's compressibility index (C) is an indication of the compressibility of a powder. It can be calculated using the equation below: Carr's index(C)=100(Vi−Vf)/Vi (3)
The Hausner ratio is a number that is correlated to the flowability of a powder or granular material. It is calculated by using the equation below: Hausner ratio=Vi/Vf (4)

[6] = Stability of free β-GPA at 40° C. at 75% humidity; conditions: 40° C. at 75% humidity after 4 weeks

N=C(N)NCCC(=O)O [β-GPA, β-Guanidinopropionic acid, reference compound]
Moisture uptake during the DVS experiment ([1]; DVS, relative humidity cycled up to 95%): around 0.1%
Solid form after the DVS experiment (XRPD) ([1]; XRPD of post DVS sample): No change in the solid form
solubility [2]: > 50 mg/mL
Flow character (summary from the experimental data) [3]: poor
Bulk density (ρB) [4]: 0.389 g/cc
Tapped density (ρT) ([4]; Tap density analyzer): 0.627 g/cc
Flow character by Carr's index [5]: Very poor (32-37)
Degradation [6]: No degradation
